Here are results for ten molecules from US7112680B2, “Heterocyclic hydrazones for use as anti-cancer agents” (Austria Wirtschaftsservice Gesellschaft MIT Beschrankter …, priority 2000, dated 2006).

Read-outs that look alike come from different tables or passages of the source.

In assay [1] the test system is Burkitt's lymphoma (CA 46, ATCC No. CRL 1648). Kind of assay: Inhibition of tumor cell growth, MTT-assay, Burkitt's lymphoma. Format: cell-based, human. The method in brief: (§1)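 Cells seeded at 3,000–10,000 (or ~10,000) per well in 96-well plates; compounds dissolved in DMSO. After treatment, samples fixed, washed and absorbance read on a microplate reader (SRB or MTT read-out according to the assay).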
(In general: Tetrazolium assays rely on reduction of a dye to a coloured formazan, in cell work by metabolically active cells.)

In assay [2] the test system is K562 (chronic myelogenous leukemia). Nature of the assay: Inhibition of tumor cell growth, K562. Format: cell-based, human. To be noted: 72 hours. How it is done:
(§2) In order to obtain information about the growth-inhibiting action on tumor cells, the inhibition of the growth of the following human tumor cells was determined: Burkitt's lymphoma (CA 46, ATCC No. CRL 1648), CCRF-CEM (acute lymphoblastic leukemia, ATCC No. CCL 119), K562 (chronic myelogenous leukemia, ATTC No. CCL 243), HeLa (epitheloid cervix carcinoma, ATCC No. CCL 2), MEXF 276L (melanoma), HT-29 (colon adenocarcinoma, ATCC No. HTB 38), KB-3-1 (human oral epidermoid carcinoma, CTCC No. CCL 17), KB-HU hydroxyurea-resistant, multidrug-resistant KB-C1 cells (Akiyama et al, Cell. Mol Genet., 11:117–126, 1985). Burkitt's, CCRF-CEM, HeLa and MEXF 276L cells were grown in RPMI 1640, HT-29 cells in McCoy's 5A medium. The KB cell lines were grown in Dulbecco's modified Eagle's medium (4,5 g glucose/l). To the cultures of KB-C1 cells 1 μg of colchicine/ml, and to the hydroxyurea-resistant KB-HU cells 1 mM hydroxyurea was added every other week. The media were supplemented with 10% fetal calf serum (except Burkitt's lymphoma cells with 15%), 2 mM glutamine, 50 units/ml penicillin and 50 μg/ml streptomycin. Inhibition of growth of HeLa, HT-29, KB and MEXF 276L cells was detected by the SRB-assay (Skehan et al, J. Natl Cancer Inst., 82:1107–1112, 1990). 3,000 - 10,000 cells in 200 μl medium were seeded per well into 96-well plates. Dose-response curves for CCRF-CEM and Burkitt's lymphoma cells were effected by an MTT-assay (Mosman, J. Immunol Methods, 65:55–63, 1983) from Boehringer Mannheim, Mannheim, Germany. Approximately 10,000 cells per 100 μl were seeded in 96-well plates. After an initial incubation of four hours, various substance concentrations were added, and the cells were incubated at 37° C. in a water-saturated atmosphere of 95% air and 5% CO2 for 72 hours. The substances were dissolved in dimethylsulfoxide (DMSO). The concentration of DMSO was 0.5%, and this was not toxic to the cells. Subsequently, the samples were fixed, washed, and the absorption was determined by a microplate reader.

In assay [3] the test system is HeLa (epitheloid cervix carcinoma). Kind of assay: Inhibition of tumor cell growth, SRB-assay, HeLa. The assay is classed as cell-based, human.
The test system of assay [4] is HT-29 (colon adenocarcinoma). Nature of the assay: Inhibition of tumor cell growth, SRB-assay, HT-29. Format: cell-based, human. In short, it runs like this:
as §1
A general note: In SRB staining, fixed cells bind dye roughly in proportion to their protein.

The test system of assay [5] is human tumor grafts (cell lines of FIG. 1). Kind of assay: Colony forming assay (two-layer soft agar). The assay is classed as cell-based. Particulars: for IC50 / IC90 / Mean IC70: mean values of all cell lines tested in FIG. 1, continuous exposure 3 to 6 days. The method in brief:
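Cells from human tumors grown as nude-mouse xenografts, enzyme-dissociated, plated in two-layer soft agar; compounds added one day later, continuous exposure, 6 concentrations in triplicate. Incubated 3-6 days at 37° C, 7% CO2; live colonies stained with iodonitrotetrazolium and counted by image analysis versus solvent controls.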

The subject of the next assay is MEXF 276L (melanoma). Kind of assay: Inhibition of tumor cell growth, SRB-assay, MEXF 276L. The assay is classed as cell-based, human. To be noted: Table 2, 72 hours, read-out: IC50 MEXF276L. How it is done: The KB cell lines were grown in Dulbecco's modified Eagle's medium (4,5 g glucose/l). To the cultures of KB-C1 cells 1 μg of colchicine/ml, and to the hydroxyurea-resistant KB-HU cells 1 mM hydroxyurea was added every other week. […] 3,000 - 10,000 cells in 200 μl medium were seeded per well into 96-well plates. […] Approximately 10,000 cells per 100 μl were seeded in 96-well plates. […] The substances were dissolved in dimethylsulfoxide (DMSO). […] Subsequently, the samples were fixed, washed, and the absorption was determined by a microplate reader.

Assay [6] deals with CCRF-CEM (acute lymphoblastic leukemia). Nature of the assay: Inhibition of tumor cell growth, MTT-assay, CCRF-CEM. The assay is classed as cell-based, human. To be noted: Table 2, 72 hours.
Assay [7] has as its system up to 12 different tumor cells in permeable hoses. Nature of the assay: Hollow fibre assay. Format: in vivo. Particulars: mice implanted with tumor cells in permeable hoses. Here is the method:
Substances Ib-11 and Ib-24 were also tested in the so-called hollow fibre assay for their anti-tumor activity. For this purpose, mice were implanted with up to 12 different tumor cells in permeable hoses and treated with the compounds according to the invention.

Assay [8] has as its system KB-3-1 (human oral epidermoid carcinoma). Nature of the assay: Inhibition of tumor cell growth, SRB-assay, KB-3-1. Format: cell-based. To be noted: read-out: In vitro-activity against human tumor cell lines, KB-3-1. Here is the method: as §2
The subject of assay [9] is KB-HU hydroxyurea-resistant cells. Nature of the assay: Inhibition of tumor cell growth, SRB-assay, KB-HU. Particulars: Table 4, 72 hours, read-out: In vitro-activity against human tumor cell lines, KB-HU. Format: cell-based, human. Here is the method: as §2
For assay [10], the system named is multidrug-resistant KB-C1 cells. Nature of the assay: Inhibition of tumor cell growth, SRB-assay, KB-C1. Format: cell-based, human. Particulars: read-out: In vitro-activity against human tumor cell lines, KB-C1. How it is done: as §2
The next assay has as its system Burkitt's lymphoma cells. Kind of assay: Apoptosis determination with propium iodide. The assay is classed as cell-based, human. Particulars: for induction of apoptosis (in words): tumor cells; for apoptotic cells: twice the IC50 concentrations, 48 hours, non-treated cells 1.7%. How it is done:
In non-treated Burkitt's lymphoma cells, an average of 1.7% are apoptotic. […] The determination of the apoptosis was performed with propium iodide (Nicoletti et al., Rapid and Simple Method for Measuring Thymocyte Apoptosis by Propium Iodine Staining and Flow Cytometry, J. Immunol. Methods, 139, 271–279, 1991).

The mark [11] stands for this setting: Table 3, 72 hours, read-out: IC50 Burkitts.
The mark [12] stands for this setting: Table 3, 72 hours, read-out: IC50 HeLa (converted).
Where [13] appears, read: Table 3, 72 hours, read-out: IC50 HT-29 (converted).
[14] abbreviates: Table 2, 72 hours, read-out: IC50 Burkitts.
[15] abbreviates: Table 2, 72 hours, read-out: IC50 HeLa (converted).
Setting [16] is: Table 2, 72 hours, read-out: IC50 HT-29 (converted).
Setting [17] is: Table 1, 72 hours, read-out: IC50 Burkitts.
[18] abbreviates: Table 1, 72 hours, read-out: IC50 HeLa (converted).
[19] abbreviates: Table 1, 72 hours, read-out: IC50 HT-29 (converted).

A word on the IC90: it is the point of the concentration-response curve where the effect stands at 90%. `C=CCn1c(NN=C(C)c2ccccn2)nc2ccccc21` [Ic-5]: the IC50 in assay [1] (setting [11]) was 980 nM; in assay [2] (Table 3) it was 180 nM; in assay [3] (setting [12]), 10 nM; in [4] (setting [13]) it was 12800 nM; in assay [5], 214 nM. The tumor type selectivity entry in assay [5] (colony forming assay, IC70 pattern, FIG. 1) was “selectivity for colon, breast, ovarian, and uterus tumors”. In assay [5], this molecule had an IC90 of 3330 nM. The “Mean IC70” value in assay [5] is 0,607 μM.
In the case of `CC(=NNc1nc2ccccc2[nH]1)c1cnccn1` [Ib-11], the IC50 is 1320 nM in assay [1] (setting [14]); 1710 nM in assay [3] (setting [15]); 710 nM in [4] (setting [16]); 2130 nM in the assay with MEXF 276L (melanoma); 900 nM in [6]. Moreover, in [7], the “anti-tumor activity in hollow fibre assay” value is “exhibit anti-tumor activity”.
`CC(=NNc1nc2ccccc2n1C)c1cc(N(C)C)ccn1` [Id-12]: the IC50 in assay [1] (Table 4, 72 hours, read-out: In vitro-activity against human tumor cell lines, Burkitts) was found to be 2210 nM; in assay [3] (Table 4, 72 hours, read-out: In vitro-activity against human tumor cell lines, HeLa), 3740 nM; in assay [4] (Table 4, 72 hours, read-out: In vitro-activity against human tumor cell lines, HT-29), 5070 nM; in assay [8] (Table 4, 72 hours) it was 2280 nM; in [9] it was 50 nM; in assay [10] (Table 4, 72 hours), 810 nM. Besides, the “induction of apoptosis (in words)” value in the assay with Burkitt's lymphoma cells is reported as “capable of inducing apoptosis”. In addition, the apoptotic cells with Burkitt's lymphoma cells was found to be 60%.
In the case of `CC(=NNc1nc2ccccc2n1-c1ccccc1)c1ccccn1` [Ic-7, 1-(2-Pyridyl)-1-ethanone-1-(1-phenyl-1H-benzo[d]imidazol-2-yl)-hydrazone], the IC50 in assay [1] (Homo sapiens, CA46, Table 3, 72 hours, read-out: IC50 Burkitts) is 3480 nM; in [2] (Homo sapiens, K562, Table 3) it was 700 nM; in assay [3] (Homo sapiens, HeLa, Table 3, 72 hours, read-out: IC50 HeLa (converted)) it was 50 nM; in assay [4] (Homo sapiens, HT-29, Table 3, 72 hours, read-out: IC50 HT-29 (converted)), 100 nM; in assay [5] (Homo sapiens), 760 nM. The molecule also had an IC90 in assay [5] (Homo sapiens) of 6300 nM. In [5], the “Mean IC70” value is 1.741 µM.
`CC(=NNc1nc2ccccc2n1C(C)C)c1ccccn1` [Ic-3]: the IC50 in assay [1] (setting [11]) is 2140 nM; in assay [2] (Table 3), 330 nM; in [3] (setting [12]) it was 60 nM; in assay [4] (setting [13]) it was 16100 nM; in assay [5], 265 nM. Further, the 90% effect level in [5] (IC90) was put at 4300 nM. Further, in [5], the “Mean IC70” value came out at 0.750 µM.
As to `CC(=NNc1nc2ccccc2o1)c1cc2ccccc2cn1` [Ib-24], the IC50 in assay [1] (setting [14]) was 25 nM; in [3] (setting [15]), 63 nM; in assay [4] (setting [16]), 230 nM; in the assay on MEXF 276L (melanoma), 650 nM; in [6] it was 130 nM. In assay [7], the “anti-tumor activity in hollow fibre assay” value was “exhibit anti-tumor activity”.
As to `CCCC(=NNc1nc2ccccc2n1C)c1ccccn1` [Ia-12], the IC50 in [1] (setting [17]) was 1780 nM; in assay [2] (Table 1), 80 nM; in assay [3] (setting [18]) it was 17 nM; in [4] (setting [19]), 16300 nM; in assay [5], 246 nM. Also, the concentration for an effect of 90% (IC90) in [5] was determined as 3740 nM. Besides, the “Mean IC70” value in assay [5] came to 0.603 µM.
Regarding `NC(=O)NO` [hydroxyurea, reference compound], the “in vitro anti-tumor activity against human cancer cells (in words)” value in assay [5] (colony forming assay, Table 5 / FIG. 1) is “far lower than that of the compounds according to the invention”. Besides, in the assay with Burkitt's lymphoma cells, the apoptotic cells is 7.3%.
In the case of `Cn1c(NN=C(c2ccccn2)C(C)(C)C)nc2ccccc21` [Ia-20], the IC50 is 8430 nM in assay [1] (setting [17]); 1680 nM in [2] (Table 1); 530 nM in [3] (setting [18]); greater than 100000 nM in [4] (setting [19]); 15 nM in assay [5]. This molecule returned an IC90 in assay [5] of 231 nM. Further, in assay [5], the “Mean IC70” value stood at 0.064 µM.
Turning to `CC(=NNc1nc2ccccc2n1C)c1cccc(-c2ccccc2)n1` [Id-17, 1-(6-Phenyl-2-pyridyl)-1-ethanone-1-(1-methyl-1H-benzo[d]imidazol-2-yl)-hydrazone], the IC50 in assay [1] (Homo sapiens, CA46, Table 4, 72 hours, read-out: In vitro-activity against human tumor cell lines, Burkitts) is 1450 nM; in [3] (Homo sapiens, HeLa, Table 4, 72 hours, read-out: In vitro-activity against human tumor cell lines, HeLa) it was 2350 nM; in assay [4] (Homo sapiens, HT-29, Table 4, 72 hours, read-out: In vitro-activity against human tumor cell lines, HT-29) it was 3360 nM; in [8] (Homo sapiens, KB 3-1, Table 4, 72 hours), 3850 nM; in [9] (Homo sapiens), 9940 nM; in assay [10] (Homo sapiens, KBC-1, Table 4, 72 hours), 3080 nM. Moreover, in the assay with Burkitt's lymphoma cells, the “induction of apoptosis (in words)” value is on record as “capable of inducing apoptosis”. For the same molecule, the apoptotic cells with Burkitt's lymphoma cells is given as 85%.
